From ChEMBL document CHEMBL6178014, “Discovery and Administration Optimization of Novel Selective CDK9 Inhibitor, 1-7a-B1, for Improved Pharmacokinetics and Antitumor Efficacy In Vivo” (J Med Chem, 2025)
pIC50, pKd: −log10 of the molar value. Calls of active or inactive are those of the source. No cut-off for these calls is given here.

How the values were obtained:
[1] = AUC (0 to t) in Sprague-Dawley rat at 2 mg/kg, iv measured after 24 hrs by LC-MS/MS analysis; assay type: ADME, organism-based; settings: in vivo
[2] = test system: HCT-116; experiment: Antitumor activity against human HCT-116 cells xenografted in female BALB/c nu-nu mouse assessed as increase in PARP cleavage at 40 mg/kg, po incubated for 48 hrs by Western blot analysis; assay type: functional, organism-based
[3] = target: CYP2C19 (Homo sapiens, UniProt P33261); experiment: Inhibition of CYP2C19 in human liver microsome at 10 uM pre-incubated with compound for 10 mins in presence of NADPH-regenerating system by LC-MS/MS analysis relative to control; assay type: ADME; settings: liver microsomes
[4] = Plasma protein binding in human at 100 uM measured up to 120 mins by LC-MS/MS analysis relative to control; assay type: ADME, cell-free; settings: read-out: PPB (converted)
[5] = test system: HCT-116; experiment: Antiproliferative activity against human HCT-116 cells assessed as reduction in colony formation incubated for 14 days by crystal violet staining based analysis; assay type: functional, cell-based; settings: dose 50-400 nM, time 14.0 day
[6] = test system: Mus musculus; experiment: In vivo inhibition of CDK9/cyclinT1 in female BALB/c nu-nu mouse xenografted with human HCT-116 cells assessed as inhibition of phosphorylation of RNA polymerase II at Ser 2 residue at 40 mg/kg, po incubated for 48 hrs by Western blot analysis; assay type: functional, organism-based
[7] = Toxicity in female BALB/c nu-nu mouse xenografted with human HCT-116 cells assessed as histopathological changes in lung at 20 mg/kg, po as submicron emulsion administered once daily for 3 weeks by H and E staining based analysis; assay type: organism-based; settings: in vivo, 504 h
[8] = AUC (0 to t) in Sprague-Dawley rat at 30 mg/kg, po as submicron emulsion measured after 24 hrs by LC-MS/MS analysis; assay type: ADME, organism-based; settings: in vivo
[9] = test system: HCT-116; experiment: Upregulation of Bax expression in human HCT-116 cells at 100 to 400 nM incubated for 48 hrs by Western blot analysis; assay type: functional, cell-based; settings: dose 100-400 nM
[10] = test system: HCT-116; experiment: Induction of apoptosis in human HCT-116 cells assessed as increase in PARP cleavage incubated for 48 hrs by Western blot analysis; assay type: functional, cell-based; settings: dose 100-400 nM
[11] = Toxicity in female BALB/c nu-nu mouse xenografted with human HCT-116 cells assessed as histopathological changes in liver at 20 mg/kg, po as submicron emulsion administered once daily for 3 weeks by H and E staining based analysis; assay type: organism-based; settings: in vivo, 504 h
[12] = Cmax in Sprague-Dawley rat at 30 mg/kg, po measured after 24 hrs by LC-MS/MS analysis; assay type: ADME, organism-based; settings: in vivo
[13] = test system: HCT-116; experiment: Induction of apoptosis in human HCT-116 cells assessed as increase in total apoptotic cells incubated for 48 hrs by Annexin V-FITC/PI staining based flow cytometry analysis; assay type: functional, cell-based; settings: dose 100-400 nM
[14] = target: Cellular tumor antigen p53 (Homo sapiens) (UniProt P04637); experiment: Induction of stabilization of wild type p53 in human HCT-116 cells at 100 to 400 nM incubated for 48 hrs by Western blot analysis; assay type: cell-based; settings: dose 100-400 nM
[15] = MRT (infinity) in Sprague-Dawley rat at 30 mg/kg, po as submicron emulsion measured after 24 hrs by LC-MS/MS analysis; assay type: ADME, organism-based; settings: in vivo
[16] = AUC (0 to t) in Sprague-Dawley rat at 30 mg/kg, po measured after 24 hrs by LC-MS/MS analysis; assay type: ADME, organism-based; settings: in vivo
[17] = target: CYP2D6 (Homo sapiens, UniProt P10635); experiment: Inhibition of CYP2D6 in human liver microsome at 10 uM pre-incubated with compound for 10 mins in presence of NADPH-regenerating system by LC-MS/MS analysis relative to control; assay type: ADME; settings: liver microsomes
[18] = target: CDK9/cyclin T1 (Homo sapiens, UniProt P50750); experiment: Binding affinity to CDK9/cyclin T1 (unknown origin) assessed as dissociation constant by SPR analysis; assay type: protein-complex assay
[19] = target: CYP1A2 (Homo sapiens, UniProt P05177); experiment: Inhibition of CYP1A2 in human liver microsome at 10 uM pre-incubated with compound for 10 mins in presence of NADPH-regenerating system by LC-MS/MS analysis relative to control; assay type: ADME; settings: liver microsomes
[20] = test system: HCT-116; experiment: Effect on MDM2 expression in human HCT-116 cells at 100 to 400 nM incubated for 48 hrs by Western blot analysis; assay type: functional, cell-based; settings: dose 100-400 nM
[21] = Tmax in Sprague-Dawley rat at 30 mg/kg, po measured after 24 hrs by LC-MS/MS analysis; assay type: ADME, organism-based; settings: in vivo
[22] = Toxicity in female BALB/c nu-nu mouse xenografted with human HCT-116 cells assessed as histopathological changes in spleen at 20 mg/kg, po as submicron emulsion administered once daily for 3 weeks by H and E staining based analysis; assay type: organism-based; settings: in vivo, 504 h
[23] = test system: HCT-116; experiment: Antiproliferative activity against human HCT-116 cells assessed as inhibition of cell growth incubated for 48 hrs by CCK8 assay; assay type: functional
[24] = test system: HCT-116; experiment: Antitumor activity against human HCT-116 cells xenografted in female BALB/c nu-nu mouse assessed as increase in caspase-3 cleavage at 40 mg/kg, po incubated for 48 hrs by Western blot analysis; assay type: functional, organism-based
[25] = test system: HCT-116; experiment: Effect on RNA polymerase II expression in human HCT-116 cells at 100 to 400 nM incubated for 48 hrs by Western blot analysis; assay type: functional, cell-based; settings: dose 100-400 nM
[26] = test system: HCT-116; experiment: Downregulation of Bcl-2 level in human HCT-116 cells at 200 to 400 nM incubated for 48 hrs by Western blot analysis; assay type: functional, cell-based; settings: dose 200-400 nM
[27] = Tmax in Sprague-Dawley rat at 30 mg/kg, po as submicron emulsion measured after 24 hrs by LC-MS/MS analysis; assay type: ADME, organism-based; settings: in vivo
[28] = Toxicity in female BALB/c nu-nu mouse xenografted with human HCT-116 cells assessed as histopathological changes in spleen at 40 mg/kg, po administered once daily for 3 weeks by H and E staining based analysis; assay type: organism-based; settings: in vivo, 504 h
[29] = Metabolic stability in human liver microsome assessed as half life at 100 uM pre-incubated with compound for 60 mins followed by NADPH addition and measured up to 60 mins by LC-MS/MS analysis; assay type: ADME; settings: liver microsomes, time < 120 min
[30] = AUC (0 to infinity) in Sprague-Dawley rat at 30 mg/kg, po as submicron emulsion measured after 24 hrs by LC-MS/MS analysis; assay type: ADME, organism-based; settings: in vivo
[31] = target: CDK1/Cyclin A (Homo sapiens, UniProt P06493); experiment: Inhibition of CDK1/cyclA2 (unknown origin) by ADP-Glo assay; assay type: protein-complex assay
[32] = AUC (0 to infinity) in Sprague-Dawley rat at 2 mg/kg, iv measured after 24 hrs by LC-MS/MS analysis; assay type: ADME, organism-based; settings: in vivo
[33] = test system: HCT-116; experiment: Antitumor activity against human HCT-116 cells xenografted in female BALB/c nu-nu mouse assessed as downregulation of Mcl-1 mRNA expression at 40 mg/kg, po incubated for 48 hrs by qRT-PCR analysis; assay type: functional, organism-based
[34] = target: Cyclin-dependent kinase 9 (Homo sapiens) (UniProt P50750); experiment: Inhibition of CDK9 in human HCT-116 cells assessed as reduction in phosphorylation of RNA polymerase II at Ser2 residue at 100 to 400 nM incubated for 48 hrs by Western blot analysis; assay type: cell-based; settings: dose 100-400 nM
Sequence of Cyclin-dependent kinase 9 (Homo sapiens) (P50750 whole entry): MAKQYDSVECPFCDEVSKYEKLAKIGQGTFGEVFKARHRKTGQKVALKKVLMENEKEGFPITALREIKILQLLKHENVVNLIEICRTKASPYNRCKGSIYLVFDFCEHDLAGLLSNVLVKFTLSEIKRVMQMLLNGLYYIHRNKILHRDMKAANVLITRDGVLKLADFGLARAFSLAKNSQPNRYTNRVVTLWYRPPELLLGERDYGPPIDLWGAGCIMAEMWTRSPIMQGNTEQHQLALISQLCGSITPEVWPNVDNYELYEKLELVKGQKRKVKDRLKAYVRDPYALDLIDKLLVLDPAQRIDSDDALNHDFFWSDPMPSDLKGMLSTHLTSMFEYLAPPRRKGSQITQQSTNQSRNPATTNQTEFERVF

Sequence of CYP2D6 (P10635 whole entry): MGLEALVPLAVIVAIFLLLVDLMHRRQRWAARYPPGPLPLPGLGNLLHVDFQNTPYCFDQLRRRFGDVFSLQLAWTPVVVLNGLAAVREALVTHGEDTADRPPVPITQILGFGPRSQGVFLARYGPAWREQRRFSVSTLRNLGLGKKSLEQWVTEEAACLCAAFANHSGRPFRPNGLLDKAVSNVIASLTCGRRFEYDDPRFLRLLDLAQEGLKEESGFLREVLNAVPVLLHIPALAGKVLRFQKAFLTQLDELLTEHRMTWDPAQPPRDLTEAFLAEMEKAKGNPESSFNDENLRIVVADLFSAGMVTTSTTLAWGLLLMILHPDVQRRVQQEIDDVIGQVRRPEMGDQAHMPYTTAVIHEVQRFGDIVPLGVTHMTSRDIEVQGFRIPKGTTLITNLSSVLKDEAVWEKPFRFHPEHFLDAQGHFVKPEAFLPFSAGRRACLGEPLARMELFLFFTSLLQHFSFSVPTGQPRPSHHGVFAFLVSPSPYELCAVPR
Sequence of CYP2C19 (P33261 whole entry): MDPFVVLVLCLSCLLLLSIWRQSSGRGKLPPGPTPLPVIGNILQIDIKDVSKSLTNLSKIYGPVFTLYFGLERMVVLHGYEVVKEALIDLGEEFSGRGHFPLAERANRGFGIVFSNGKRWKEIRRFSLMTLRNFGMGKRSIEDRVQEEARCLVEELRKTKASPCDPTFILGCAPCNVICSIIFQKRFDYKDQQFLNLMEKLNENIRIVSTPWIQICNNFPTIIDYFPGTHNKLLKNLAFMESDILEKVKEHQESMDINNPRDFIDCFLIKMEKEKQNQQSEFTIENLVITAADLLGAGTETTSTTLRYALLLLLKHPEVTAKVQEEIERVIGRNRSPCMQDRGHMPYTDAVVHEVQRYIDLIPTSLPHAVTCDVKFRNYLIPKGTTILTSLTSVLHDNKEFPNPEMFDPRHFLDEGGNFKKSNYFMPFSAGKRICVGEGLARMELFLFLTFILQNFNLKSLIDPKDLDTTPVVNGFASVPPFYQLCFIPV
Sequence of CYP1A2 (P05177 whole entry): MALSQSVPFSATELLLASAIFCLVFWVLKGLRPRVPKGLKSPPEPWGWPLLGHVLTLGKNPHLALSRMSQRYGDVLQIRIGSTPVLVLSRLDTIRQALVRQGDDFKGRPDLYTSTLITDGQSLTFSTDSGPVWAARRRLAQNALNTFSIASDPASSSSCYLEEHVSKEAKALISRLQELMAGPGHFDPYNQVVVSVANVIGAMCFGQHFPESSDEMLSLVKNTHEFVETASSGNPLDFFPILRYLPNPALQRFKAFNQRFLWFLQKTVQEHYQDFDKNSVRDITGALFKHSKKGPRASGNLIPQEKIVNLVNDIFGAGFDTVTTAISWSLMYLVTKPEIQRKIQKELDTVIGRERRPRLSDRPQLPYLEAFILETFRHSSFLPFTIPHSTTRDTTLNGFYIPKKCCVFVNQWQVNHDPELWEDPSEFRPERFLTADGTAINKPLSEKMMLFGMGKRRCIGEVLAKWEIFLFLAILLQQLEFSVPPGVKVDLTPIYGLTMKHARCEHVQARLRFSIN
Sequence of Cellular tumor antigen p53 (Homo sapiens) (P04637 whole entry, looked up): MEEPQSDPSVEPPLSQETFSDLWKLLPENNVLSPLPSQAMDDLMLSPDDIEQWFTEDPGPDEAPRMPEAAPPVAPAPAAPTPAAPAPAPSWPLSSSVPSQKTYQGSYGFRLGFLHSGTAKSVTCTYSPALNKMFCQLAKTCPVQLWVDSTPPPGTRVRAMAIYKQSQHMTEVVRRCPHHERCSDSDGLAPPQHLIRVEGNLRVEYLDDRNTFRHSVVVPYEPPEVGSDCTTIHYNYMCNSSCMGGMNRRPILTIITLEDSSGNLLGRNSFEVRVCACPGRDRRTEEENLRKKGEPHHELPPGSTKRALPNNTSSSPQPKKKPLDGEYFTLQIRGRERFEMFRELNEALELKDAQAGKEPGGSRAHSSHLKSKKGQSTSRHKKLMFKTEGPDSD
Sequence of CDK9/cyclin T1 (O60563 whole entry): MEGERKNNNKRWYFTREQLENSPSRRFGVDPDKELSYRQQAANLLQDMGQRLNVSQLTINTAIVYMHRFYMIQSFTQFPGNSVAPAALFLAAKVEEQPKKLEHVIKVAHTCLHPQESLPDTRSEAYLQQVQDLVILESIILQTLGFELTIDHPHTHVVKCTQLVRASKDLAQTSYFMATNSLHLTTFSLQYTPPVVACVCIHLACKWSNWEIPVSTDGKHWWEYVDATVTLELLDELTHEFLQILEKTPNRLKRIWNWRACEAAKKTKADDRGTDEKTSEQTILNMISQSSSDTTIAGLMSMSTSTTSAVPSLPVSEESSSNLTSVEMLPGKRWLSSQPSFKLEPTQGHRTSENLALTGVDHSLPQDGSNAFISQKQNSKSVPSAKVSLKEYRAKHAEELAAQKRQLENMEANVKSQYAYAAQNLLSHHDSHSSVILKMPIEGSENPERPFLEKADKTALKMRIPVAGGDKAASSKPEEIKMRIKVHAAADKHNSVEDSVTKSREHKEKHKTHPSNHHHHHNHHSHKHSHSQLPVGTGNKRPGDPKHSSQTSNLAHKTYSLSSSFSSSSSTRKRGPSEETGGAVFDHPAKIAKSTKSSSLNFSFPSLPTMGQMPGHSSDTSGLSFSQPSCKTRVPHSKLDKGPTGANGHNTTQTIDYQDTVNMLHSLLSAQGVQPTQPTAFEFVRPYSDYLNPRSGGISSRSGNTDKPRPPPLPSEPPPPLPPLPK
Sequence of CDK9/cyclin T1 (P50750 whole entry): as the sequence (P50750 whole entry) above
Sequence of CDK1/Cyclin A (P06493 whole entry): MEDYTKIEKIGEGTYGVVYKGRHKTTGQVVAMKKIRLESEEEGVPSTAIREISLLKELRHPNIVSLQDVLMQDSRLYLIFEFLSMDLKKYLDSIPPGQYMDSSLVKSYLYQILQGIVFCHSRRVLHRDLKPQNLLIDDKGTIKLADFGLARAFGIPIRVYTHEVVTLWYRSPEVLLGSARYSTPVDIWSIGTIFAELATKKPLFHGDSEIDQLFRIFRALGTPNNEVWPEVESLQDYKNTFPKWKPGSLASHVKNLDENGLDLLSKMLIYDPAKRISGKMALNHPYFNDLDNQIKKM
Sequence of CDK1/Cyclin A (P20248 whole entry, further chain): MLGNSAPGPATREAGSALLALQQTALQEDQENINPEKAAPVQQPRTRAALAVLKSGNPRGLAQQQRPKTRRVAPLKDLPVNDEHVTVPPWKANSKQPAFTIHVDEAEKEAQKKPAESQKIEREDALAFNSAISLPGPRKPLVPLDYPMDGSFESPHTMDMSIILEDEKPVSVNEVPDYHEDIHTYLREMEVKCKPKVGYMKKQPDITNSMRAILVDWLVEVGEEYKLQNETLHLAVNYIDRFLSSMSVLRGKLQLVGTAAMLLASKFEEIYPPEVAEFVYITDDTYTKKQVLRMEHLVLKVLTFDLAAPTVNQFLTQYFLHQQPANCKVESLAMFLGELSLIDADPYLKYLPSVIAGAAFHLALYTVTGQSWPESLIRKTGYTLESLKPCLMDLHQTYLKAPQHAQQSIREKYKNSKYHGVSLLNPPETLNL

Question: For `CC(C)Oc1cc(F)ccc1-c1ccnc(NC(=O)Nc2cccc(C(=O)N3CCN(C)CC3)c2)c1`, which AUC(0-t) at 24 h [1] is on record?
Answer: Its AUC(0-t) at 24 h is 403 ng·h/mL.

Question: What about the Activity [2] of the same compound?
Answer: Its Activity is “Active”.

Question: What about the inhibition at 10 µM [3] of the same compound?
Answer: The inhibition at 10 µM was 69.6%.

Question: What about the fraction unbound at 2 h, 100 µM [4] of the same compound?
Answer: Its fraction unbound at 2 h, 100 µM is 0.006.

Question: What about the Activity [5] of the same compound?
Answer: Its Activity is “Dose-dependent-effect”.

Question: And the inhibition [6]?
Answer: The inhibition was “Active”.

Question: What about the Activity [7] of the same compound?
Answer: The Activity was “Non-toxic”.

Question: What about the AUC(0-t) at 24 h [8] of the same compound?
Answer: Its AUC(0-t) at 24 h is 1610 ng·h/mL.

Question: And the Activity [9]?
Answer: The Activity was “Active”.

Question: And the Activity [10]?
Answer: The Activity was “Dose-dependent-effect”.

Question: What about the Activity [11] of the same compound?
Answer: Its Activity is “Non-toxic”.

Question: And the Cmax [12]?
Answer: The Cmax was 302 ng/mL.

Question: What about the Activity [13] of the same compound?
Answer: The Activity was “Dose-dependent-effect”.

Question: And the Activity [14]?
Answer: The Activity was “Active”.

Question: And the MRT inf [15]?
Answer: Its MRT inf is 125 min.

Question: And the AUC(0-t) at 24 h [16]?
Answer: Its AUC(0-t) at 24 h is 897 ng·h/mL.

Question: What about the inhibition at 10 µM [17] of the same compound?
Answer: The inhibition at 10 µM was 42.6%.

Question: What about the pKd [18] of the same compound?
Answer: Its pKd is 5.05.

Question: What about the inhibition at 10 µM [19] of the same compound?
Answer: Its inhibition at 10 µM is 12.5%.

Question: And the Activity [20]?
Answer: The Activity was “inactive”.

Question: And the Tmax [21]?
Answer: Its Tmax is 15 min.

Question: What about the Activity [22] of the same compound?
Answer: The Activity was “Non-toxic”.

Question: What about the GI50 [23] of the same compound?
Answer: Its GI50 is 0.15 µM.

Question: And the Activity [24]?
Answer: The Activity was “Active”.

Question: What about the Activity [25] of the same compound?
Answer: Its Activity is “inactive”.

Question: What about the Activity [26] of the same compound?
Answer: The Activity was “Active”.

Question: What about the Tmax [27] of the same compound?
Answer: Its Tmax is 30 min.

Question: And the Activity [28]?
Answer: The Activity was “Non-toxic”.

Question: What about the half-life at 100 µM [29] of the same compound?
Answer: The half-life at 100 µM was 3.9 min.

Question: And the AUC [30]?
Answer: The AUC was 1611 ng·h/mL.

Question: What about the pIC50 [31] of the same compound?
Answer: The pIC50 was 5.41.

Question: And the AUC(0-inf) [32]?
Answer: The AUC(0-inf) was 407 ng·h/mL.

Question: And the Activity [33]?
Answer: The Activity was “Active”.

Question: And the Activity [34]?
Answer: The Activity was “Active”.
